The results in this text go back to ChEMBL document CHEMBL5500425, “Designing Small Molecule PI3Kγ Inhibitors: A Review of Structure-Based Methods and Computational Approaches” (J Med Chem, 2024).

Series [1] in a line: Clearance in Beagle Dog at 1 micromol/kg, iv. It is filed as ADME, Canis lupus familiaris. To be noted: in vivo, dose 1 µmol/kg.
Series [2] can be described thus: Oral bioavailability in Beagle dog at 2 mg/kg. The note with it: in vivo. It is filed as ADME, organism-based, Canis lupus familiaris.
The target of series [3] is T1, Phosphatidylinositol 4,5-bisphosphate 3-kinase catalytic subunit gamma isoform (Homo sapiens, UniProt P48736). The experiment in a line: Inhibition of human recombinant PI3Kgamma using phosphatidylinositol as substrate in presence of [gamma33P]ATP by scintillation proximity assay. (Scintillation proximity formats need no separation of bound from free tracer.)
Target sequence in this assay (P48736 whole entry, looked up, canonical isoform): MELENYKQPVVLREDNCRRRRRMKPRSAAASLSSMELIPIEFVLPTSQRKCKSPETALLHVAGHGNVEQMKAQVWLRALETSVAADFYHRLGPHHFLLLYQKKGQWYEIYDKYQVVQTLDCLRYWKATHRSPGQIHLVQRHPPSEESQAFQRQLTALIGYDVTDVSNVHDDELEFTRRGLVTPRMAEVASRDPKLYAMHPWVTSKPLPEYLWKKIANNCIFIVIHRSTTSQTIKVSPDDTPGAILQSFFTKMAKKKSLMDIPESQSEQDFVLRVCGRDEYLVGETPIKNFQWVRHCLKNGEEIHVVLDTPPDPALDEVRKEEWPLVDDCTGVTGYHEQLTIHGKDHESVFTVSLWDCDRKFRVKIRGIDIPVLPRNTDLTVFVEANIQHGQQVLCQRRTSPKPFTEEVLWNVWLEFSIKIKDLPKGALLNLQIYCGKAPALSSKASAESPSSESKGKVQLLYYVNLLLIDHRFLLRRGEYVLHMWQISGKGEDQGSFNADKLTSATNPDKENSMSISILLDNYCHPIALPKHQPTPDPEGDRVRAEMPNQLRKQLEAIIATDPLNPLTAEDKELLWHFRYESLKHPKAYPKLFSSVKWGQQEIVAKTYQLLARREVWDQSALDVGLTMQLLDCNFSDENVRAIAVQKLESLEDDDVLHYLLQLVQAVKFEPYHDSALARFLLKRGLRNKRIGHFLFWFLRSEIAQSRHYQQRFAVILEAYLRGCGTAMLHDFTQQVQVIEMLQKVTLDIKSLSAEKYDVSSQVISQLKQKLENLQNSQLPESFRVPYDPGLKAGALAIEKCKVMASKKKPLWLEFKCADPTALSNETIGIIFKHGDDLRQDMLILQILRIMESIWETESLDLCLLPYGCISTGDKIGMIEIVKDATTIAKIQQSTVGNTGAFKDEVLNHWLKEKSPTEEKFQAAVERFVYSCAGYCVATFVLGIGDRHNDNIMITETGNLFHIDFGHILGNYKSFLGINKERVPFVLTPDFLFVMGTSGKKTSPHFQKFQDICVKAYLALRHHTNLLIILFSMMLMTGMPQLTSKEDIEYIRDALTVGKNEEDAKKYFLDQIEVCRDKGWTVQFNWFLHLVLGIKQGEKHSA
Series [4] addresses T2, Phosphatidylinositol 4,5-bisphosphate 3-kinase catalytic subunit delta isoform (Homo sapiens, UniProt O00329).
T2 sequence (O00329 whole entry): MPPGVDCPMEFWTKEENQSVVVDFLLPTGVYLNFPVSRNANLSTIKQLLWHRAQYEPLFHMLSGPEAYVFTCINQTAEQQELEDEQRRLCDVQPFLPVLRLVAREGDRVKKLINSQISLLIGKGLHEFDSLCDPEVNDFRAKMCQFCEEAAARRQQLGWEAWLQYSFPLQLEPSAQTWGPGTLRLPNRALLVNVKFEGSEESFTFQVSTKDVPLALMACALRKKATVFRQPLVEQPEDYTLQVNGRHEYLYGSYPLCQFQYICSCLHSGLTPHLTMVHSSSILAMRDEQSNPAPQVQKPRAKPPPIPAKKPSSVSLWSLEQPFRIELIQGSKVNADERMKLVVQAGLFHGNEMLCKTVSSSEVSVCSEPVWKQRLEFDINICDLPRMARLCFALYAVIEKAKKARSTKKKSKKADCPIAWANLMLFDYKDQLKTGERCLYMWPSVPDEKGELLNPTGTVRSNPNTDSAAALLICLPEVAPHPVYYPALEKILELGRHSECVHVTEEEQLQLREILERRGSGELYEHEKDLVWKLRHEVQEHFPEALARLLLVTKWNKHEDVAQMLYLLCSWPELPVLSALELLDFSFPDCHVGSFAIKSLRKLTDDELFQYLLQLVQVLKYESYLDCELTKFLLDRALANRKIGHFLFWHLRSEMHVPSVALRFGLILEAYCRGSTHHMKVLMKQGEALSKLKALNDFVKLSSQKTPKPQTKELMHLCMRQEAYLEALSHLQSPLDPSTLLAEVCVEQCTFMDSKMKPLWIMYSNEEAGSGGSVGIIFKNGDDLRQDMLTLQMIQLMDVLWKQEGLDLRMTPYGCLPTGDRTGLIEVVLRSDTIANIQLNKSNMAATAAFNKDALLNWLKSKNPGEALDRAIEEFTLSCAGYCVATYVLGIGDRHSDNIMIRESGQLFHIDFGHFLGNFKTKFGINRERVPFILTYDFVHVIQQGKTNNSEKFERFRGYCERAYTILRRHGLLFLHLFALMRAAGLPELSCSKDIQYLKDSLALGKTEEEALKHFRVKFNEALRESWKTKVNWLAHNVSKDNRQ
The series is described as follows: Inhibition of P13Kdelta (unknown origin) in the presence of ATP by scintillation proximity assay.

Series [5] concerns the target Phosphatidylinositol 4,5-bisphosphate 3-kinase catalytic subunit alpha isoform (Homo sapiens, UniProt P42336). The series is described as follows: Inhibition of PI3Kalpha (unknown origin) using […] as substrate preincubated for 10 mins followed by substrate addition by microplate reader analysis.
The nature of series [6]: Inhibition of P13Kalpha (unknown origin) in the presence of ATP by scintillation proximity assay.
Series [7] can be described thus: Oral bioavailability in rat at 10 mg/kg. To be noted: in vivo. It counts as ADME, organism-based.
The target in series [8] is T1, Phosphatidylinositol 4,5-bisphosphate 3-kinase catalytic subunit gamma isoform. The experiment in a line: Inhibition of human PI3Kgamma expressed in baculovirus infected Sf21 insect cells by ADP-Glo assay.
Target sequence in this assay (P48736 whole entry, canonical isoform): as the sequence (P48736 whole entry, looked up, canonical isoform) above
The target of series [9] is T2, Phosphatidylinositol 4,5-bisphosphate 3-kinase catalytic subunit delta isoform. The experiment in a line: Inhibition of human PI3Kdelta expressed in baculovirus infected Sf21 insect cells by ADP-Glo assay. (ADP-Glo turns the ADP formed in a reaction into a luminescent signal.)
Series [10] concerns the target T1, Phosphatidylinositol 4,5-bisphosphate 3-kinase catalytic subunit gamma isoform. The experiment in a line: Inhibition of PI3Kgamma (unknown origin).
Target sequence in this assay (P48736 whole entry, canonical isoform): as the sequence (P48736 whole entry, looked up, canonical isoform) above
For series [11], the target named is T2, Phosphatidylinositol 4,5-bisphosphate 3-kinase catalytic subunit delta isoform. The experiment in a line: Inhibition of PI3Kdelta (unknown origin).
The target in series [12] is Phosphatidylinositol 4,5-bisphosphate 3-kinase catalytic subunit beta isoform (Homo sapiens, UniProt P42338). The series is described as follows: Inhibition of PI3Kbeta (unknown origin).
Chain of Phosphatidylinositol 4,5-bisphosphate 3-kinase catalytic subunit beta isoform (P42338 whole entry, canonical isoform): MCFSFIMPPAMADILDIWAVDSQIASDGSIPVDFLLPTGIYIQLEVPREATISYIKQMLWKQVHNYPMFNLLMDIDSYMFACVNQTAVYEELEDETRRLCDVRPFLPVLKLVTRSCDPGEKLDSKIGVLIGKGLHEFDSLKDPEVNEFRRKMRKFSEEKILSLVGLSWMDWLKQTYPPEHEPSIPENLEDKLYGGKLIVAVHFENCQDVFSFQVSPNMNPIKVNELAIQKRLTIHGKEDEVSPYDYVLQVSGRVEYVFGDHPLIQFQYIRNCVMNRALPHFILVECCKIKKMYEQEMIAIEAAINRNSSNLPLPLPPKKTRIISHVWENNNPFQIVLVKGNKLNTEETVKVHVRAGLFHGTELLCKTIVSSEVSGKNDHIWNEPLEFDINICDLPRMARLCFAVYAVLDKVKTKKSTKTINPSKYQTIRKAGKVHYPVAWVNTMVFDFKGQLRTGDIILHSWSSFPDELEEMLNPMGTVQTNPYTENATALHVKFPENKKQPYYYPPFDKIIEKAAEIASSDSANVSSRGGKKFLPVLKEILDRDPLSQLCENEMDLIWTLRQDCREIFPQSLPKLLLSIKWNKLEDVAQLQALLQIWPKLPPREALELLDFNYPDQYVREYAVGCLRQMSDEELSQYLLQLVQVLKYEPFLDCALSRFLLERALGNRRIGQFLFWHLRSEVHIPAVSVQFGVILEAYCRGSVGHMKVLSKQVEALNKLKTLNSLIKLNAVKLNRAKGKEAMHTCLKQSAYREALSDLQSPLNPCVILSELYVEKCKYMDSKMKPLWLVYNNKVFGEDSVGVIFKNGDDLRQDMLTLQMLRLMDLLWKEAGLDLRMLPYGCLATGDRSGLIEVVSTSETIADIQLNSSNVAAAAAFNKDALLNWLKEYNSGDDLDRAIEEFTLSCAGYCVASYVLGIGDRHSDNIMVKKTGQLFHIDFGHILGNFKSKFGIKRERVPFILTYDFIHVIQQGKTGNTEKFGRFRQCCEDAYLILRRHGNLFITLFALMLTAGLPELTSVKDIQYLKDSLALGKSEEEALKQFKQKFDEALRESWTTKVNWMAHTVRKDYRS
Series [13] is described as follows: Inhibition of P13Kalpha (unknown origin).

Molecules are shown by their SMILES. Some results are limits rather than exact numbers.

Chain of Phosphatidylinositol 4,5-bisphosphate 3-kinase catalytic subunit alpha isoform (P42336 whole entry, canonical isoform): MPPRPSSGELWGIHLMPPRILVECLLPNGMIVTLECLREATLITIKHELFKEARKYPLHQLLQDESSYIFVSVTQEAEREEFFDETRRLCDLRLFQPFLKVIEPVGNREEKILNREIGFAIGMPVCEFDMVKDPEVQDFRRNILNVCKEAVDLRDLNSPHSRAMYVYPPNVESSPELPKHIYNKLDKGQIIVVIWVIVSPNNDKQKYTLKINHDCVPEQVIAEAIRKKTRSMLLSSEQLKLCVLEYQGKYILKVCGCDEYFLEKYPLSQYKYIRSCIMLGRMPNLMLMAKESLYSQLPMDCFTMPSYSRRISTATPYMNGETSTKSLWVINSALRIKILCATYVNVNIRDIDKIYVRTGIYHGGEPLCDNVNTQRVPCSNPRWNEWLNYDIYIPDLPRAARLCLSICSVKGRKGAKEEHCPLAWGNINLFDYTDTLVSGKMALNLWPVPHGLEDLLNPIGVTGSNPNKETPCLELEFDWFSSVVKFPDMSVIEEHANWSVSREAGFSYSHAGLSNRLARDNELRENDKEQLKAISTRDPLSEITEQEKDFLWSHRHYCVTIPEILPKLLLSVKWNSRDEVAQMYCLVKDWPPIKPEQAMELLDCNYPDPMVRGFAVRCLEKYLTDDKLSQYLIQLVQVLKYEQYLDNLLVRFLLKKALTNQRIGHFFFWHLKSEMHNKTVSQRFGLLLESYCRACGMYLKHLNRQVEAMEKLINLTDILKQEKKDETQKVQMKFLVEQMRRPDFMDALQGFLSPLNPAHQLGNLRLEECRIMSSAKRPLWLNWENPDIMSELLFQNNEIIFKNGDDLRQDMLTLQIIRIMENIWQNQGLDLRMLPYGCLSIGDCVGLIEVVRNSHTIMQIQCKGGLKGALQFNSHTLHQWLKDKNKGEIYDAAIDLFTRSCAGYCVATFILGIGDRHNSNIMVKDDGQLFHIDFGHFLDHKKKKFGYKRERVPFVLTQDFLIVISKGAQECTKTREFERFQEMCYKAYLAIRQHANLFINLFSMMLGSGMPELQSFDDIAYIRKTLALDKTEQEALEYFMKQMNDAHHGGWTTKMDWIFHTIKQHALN

A word on the clearance: it is the volume of plasma or blood freed of the substance per unit of time. A higher clearance goes with efficient removal. In general, bioavailability refers to the share of a dose that reaches the circulation, judged against a reference dose that is usually intravenous. A low value points to poor availability. Compound `CC(=O)Nc1nc(C)c(-c2cc3c(c(S(C)(=O)=O)c2)C(=O)N([C@@H](C)C2CC2)C3)s1` yielded a clearance in [1] of 3.3 mL/min/kg. The compound also registered a bioavailability in [2] of 82%.

As usually defined, the IC50 is the concentration at which inhibition is half-maximal. Turning to `Cc1cc(C(O)(CO)C(F)F)ccc1-c1cnc(N)c(C(=O)N2CC[C@H](CO)C2)n1` (stereo partly specified), the IC50 in [3] was not above 100 nM; in [4] it was less than 2000 nM.

The compound `CC1(CCn2nc(-c3ccc(Cl)c(O)c3)c3c(N)ncnc32)COC1` gave a half-inhibitory concentration (IC50) in series [5] of 172 nM.

For `Cc1ncc(-c2cc(-c3ccc(S(=O)(=O)NCC(C)(C)O)cc3C)cnc2N)o1`, the IC50 was found to be 40 nM in series [3] and 300 nM in [6]. The bioavailability in series [7] is 72%.

On to `Cc1nnc(-c2cc(-c3cc4c(c(S(C)(=O)=O)c3)C(=O)N([C@@H](C)C3CC3)C4)ccn2)[nH]1`, for which the IC50 in series [4] is less than 2000 nM.

On to `Cc1cc(S(=O)(=O)N[C@H]2CC[C@H](O)CC2)ccc1-c1cnc(N)c(C(=O)C2CC2)n1`, for which the results for the IC50 in series [3] and in series [6] were 24 nM and 110 nM, respectively. The same compound yielded a bioavailability in [7] of 23%.

Consider `Cc1nc(N)c2ncc(-c3cc(C(C)(O)CC(F)(F)F)ccc3C)n2n1` (stereo unspecified), for which, in [4], the 50% inhibitory concentration (IC50) is less than 2000 nM.

For `COc1cncc(-c2ccc3nc(-c4nc5c(C)cccc5[nH]4)oc3c2)c1`, the IC50 in series [8] was less than 250 nM; in [9] it was not below 5000 nM.

Turning to `Clc1ccc(Cn2cc(-c3ccnc(-c4ncc(-c5ccccc5)[nH]4)c3)cn2)cc1`, the IC50 in series [4] is more than 500 nM.

On to `CC(NC(=O)c1c(N)nn2cccnc12)c1cc(Cl)c2c(C#N)ncn2c1N1CCS(=O)(=O)C(C)C1` (stereo unspecified), for which the IC50 is less than 100 nM in series [10] and less than 2000 nM in series [11].

As for `Cc1cc(S(=O)(=O)N[C@H]2CC[C@H](O)CC2)ccc1-c1cnc2c(N)c(Cl)ccn12`, the IC50 in series [4] was not above 500 nM.

As to `CC(=O)c1c(C)n(-c2ccc(C)cc2)c2ccc(OCC(O)CNCc3ccc(Cl)cc3)cc12` (stereo unspecified), the IC50 in series [12] and in [13] was more than 20000 nM throughout.
